Results on 2 molecules are retold here after patent US5908868A, “Retinol derivatives useful for enhancing immune response” (priority 1995, dated 1999).

One test concerns 5/2 cells. Briefly: Growth (DNA synthesis, [3H]thymidine) of lymphoblastoid 5/2 cells in serum-free medium. The test is classed as cell-based, human. The note with it: for restoration of capacity to proliferate: ITLB medium without retinol. The procedure: Washed 5/2 cells (5,000/well) were incubated for 72 hours in HB101 medium with the indicated amounts of retinoids. DNA synthesis was measured by [^3 H] thymidine uptake. The measurements were done in triplicate. The SDs were <15%.
In FIGS. 4B to 4D, 5/2 cells were washed twice and seeded at a concentration of 150,000 cells/ml in HB 101 medium. Triplicate samples of 100 μl of cell suspension were removed daily and pulsed for 6 hours with [^3 H] thymidine. Means are shown. The SDs were never >20%.
P3 was purified as described in the Experimental Details section. 5/2 cells (5,000/well) were incubated for 72 hours in HB101 medium and refed with the indicated amount of retinoid daily. DNA synthesis was measured by [^3 H]-thymidine uptake. P3 is bioactive down to a concentration of 10-^8 M (FIG. 8). […] This is due either to chemical instability or to a more rapid metabolic degradation of P3 by the cells.
The assay was done in 96-well microtiter plates in a final volume of 200 ul/well. The cells were cultured for 72 hours and cell growth determined by [^3 H] thymidine (0.8 μCi/well)labeling for the last 16 hours. Retinoids were added at the indicated concentrations at the initiation of culture and every 24 hours thereafter.
The human EBV-transformed B-cell line 5/2 was established from the peripheral blood of a healthy donor. The cell line was grown in RPMI 1640 supplemented with 8% fetal calf serum, L-glutamine (2 mM), and antibiotics. The cell line was tested regularly for mycoplasma infections and was consistently negative.
The assay system is a modification of the assay developed by Blazar et al. (12). […] Assays were done in 96 well microtiter plates in a final volume of 200 μl/well or in 25 cm^2 tissue culture flasks. The cells in the microtiter plates were cultured for 72 hours and cell growth was determined by labeling for the last 16 hours with 0.8 μCi/well of [^3 H]thymidine (sp. act. 6.7 Ci/mmol). Growth in the culture flasks was determined in three aliquots of 100 μl taken at 24 hours intervals and cultured in the presence of 0.8 μCi of [^3 H]thymidine for an additional 6 hour period. To determine the viable cell number, nine aliquots per time point were differentially counted in a Neubauer chamber in the presence of trypan blue.
5/2 cells were grown in the absence of retinol in a medium containing the basic RPMI 1640 amino acid/salt mixture, insulin (5 μg/ml), transferrin (5 μg/ml), albumin (0.1%) and linoleic acid (10^-6 M) (ITLB). […] The dose-response curve shown in FIG. 26 indicates an effective concentration of 10^-7 M.

The next test deals with B lymphocytes. The note with it: cited from earlier work.
Another test has as its system CD4+ T lymphocytes. As to the kind of experiment: Proliferation of anti-CD3 activated CD4+ T lymphocytes. The test is classed as cell-based, BALB/c mouse. The text has this: Growth curves of lymph node T cells depleted of antigen-presenting cells (FIG. 17A) with and without 10^-6 M retinol at 2×10^5 and 5×10^4 cells/well. (FIG. 17B) Dose-responses elicited by different retinoids in cultures of lymph node T cells depleted of antigen-presenting cells. Also shown are the growth curves of CD4^+ (FIG. 17C) and CD8^+ T lymphocytes (FIG. 17D) in the presence of either retinol, 14HRR, human serum or in their absence.
T lymphocytes, purified as described, 5×10^4 well, were activated with immobilized anti-CD3 antibody in ITLB medium. The indicated amounts of retinoids or human serum were added at initiation of cultures. […] 14HRR was added every 12 hours. DNA synthesis was measured by a 4 hour pulse with tritiated thymidine. SDs were ≤17%.
The cell suspension in a volume of 2 ml was applied to a nylon wool column (40) (0.6 g of washed nylon fibers in the barrel of a 10 ml syringe) and incubated at 37° C. for 40 min. The non-adherent cells were recovered by washing with warm serum-free medium at a flow rate of 1 ml/min. […] The success of the enrichment procedures was monitored cytofluorimetrically using FITC-conjugated anti-CD8 and PE-conjugated anti-CD4. […]

A further test concerns blast cells (thymocytes). As to the kind of experiment: Flow cytometry phenotype of blast cells from activated thymocyte cultures. Format: cell-based, BALB/c mouse. The note with it: retinol- and 14HRR-supported cultures, data not shown. The procedure: To determine the phenotype of blast cells generated in the thymocyte cultures stimulated with immobilized anti-CD3 antibody and retinoids as well as the purity of CD4 and CD8 subsets isolated from pooled mouse lymph nodes, cells (10^5 -10^6 cells/sample), stained with FITC-conjugated anti-CD4 antibody and PE-conjugated anti-CD8 antibody, were analyzed by two-color flow cytometry with a FACScan. Dead cells were eliminated by forward low-angle scatter. Isotope controls were included in all experiments. To determine the phenotypes of activated thymocytes only blast cells were gated for collection and analysis.
(A flow cytometer gives signals particle by particle.)

[1] abbreviates: previous analyses with B lymphocytes (33).

`CC(C=CC=C(C)C(O)CO)=CC=C1C(C)=CCCC1(C)C` (centres unmarked) [14HRR, 14-hydroxy-4,14-retro-retinol]: the “support of 5/2 cell growth” value with 5/2 cells (HB101 medium) is “active and capable of replacing retinol”. Further, in the test with 5/2 cells (Homo sapiens, 72 h, HB101 medium, refed daily, read-out: bioactive down to a concentration), the minimal effective concentration was found to be 0.01 µM. Also, the “restoration of capacity to proliferate” value in the test on 5/2 cells is reported as “restores the capacity to proliferate”. Further, the “need to replenish cultures” value with 5/2 cells (chemical instability or more rapid metabolic degradation) is on record as “cultures have to be replenished daily”. Besides, the “potency relative to retinol in preventing necrotic cell death” value in the test with B lymphocytes (on a concentration basis, previous studies) was 20-40 times more potent. Besides, in the test with B lymphocytes (setting [1]), the “concentration at which activity was demonstrated” value was 5 µM and the “difference in active concentration, 14HRR versus retinal” value was 40 fold. In addition, the “support of B cell growth/proliferation” value with B lymphocytes (previous studies) is on record as “capable of supporting the proliferation of B cells in the absence of an external supply of retinol”. The “response to activating signal” value with CD4+ T lymphocytes is listed as “responded to the activating signal”. In the test with blast cells (thymocytes), the “CD4+ cells among blast cells” value was approximately 70% and the “CD8+ cells among blast cells” value is listed as approximately 30%.

In the case of `CC1=C(/C=C/C(C)=C/C=C/C(C)=C/CO)C(C)(C)CCC1` [retinol, all-trans retinol], the “support of 5/2 cell growth” value in the test with 5/2 cells (HB101 medium) is recorded as “enable 5/2 cells to grow”. For the same molecule, the “restoration of capacity to proliferate” value in the test on 5/2 cells was “restores the capacity to proliferate”. In addition, the “support of B cell growth/proliferation” value in the test on B lymphocytes (previous studies) was “necessary for the growth of B lymphocytes”. Also, the “response to activating signal” value in the test on CD4+ T lymphocytes was “responded to the activating signal”. Also, in the test with blast cells (thymocytes), the “CD4+ cells among blast cells” value is given as approximately 70% and the “CD8+ cells among blast cells” value is reported as approximately 30%.
